Activity calls are given as the source filed them.
How the values were obtained:
[1] = A cytotoxicity screen of small molecule inhibitors of the PhoP region in Salmonella typhi identified in the primary screen. [Related pubchem assays: 1850, 1864, 1985 ]; type: functional
Cytochrome P450 3A4 = Cytochrome P450 3A4 (Homo sapiens, UniProt P08684); conditions: Potency;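 also: confirmatory qHTS run detecting inhibitors and substrates of CYP3A4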
Aminopeptidase N = target: T1, Aminopeptidase N (Plasmodium falciparum FcB1/Columbia, UniProt O96935); experiment: P. falciparum M1AAP inhibitors, biochemical, fluorogenic H-Leu-NHMec substrate, 1536-well (AID 1445); parameters: species or system Plasmodium falciparum 3D7, 3D7
T1 sequence (O96935 whole entry): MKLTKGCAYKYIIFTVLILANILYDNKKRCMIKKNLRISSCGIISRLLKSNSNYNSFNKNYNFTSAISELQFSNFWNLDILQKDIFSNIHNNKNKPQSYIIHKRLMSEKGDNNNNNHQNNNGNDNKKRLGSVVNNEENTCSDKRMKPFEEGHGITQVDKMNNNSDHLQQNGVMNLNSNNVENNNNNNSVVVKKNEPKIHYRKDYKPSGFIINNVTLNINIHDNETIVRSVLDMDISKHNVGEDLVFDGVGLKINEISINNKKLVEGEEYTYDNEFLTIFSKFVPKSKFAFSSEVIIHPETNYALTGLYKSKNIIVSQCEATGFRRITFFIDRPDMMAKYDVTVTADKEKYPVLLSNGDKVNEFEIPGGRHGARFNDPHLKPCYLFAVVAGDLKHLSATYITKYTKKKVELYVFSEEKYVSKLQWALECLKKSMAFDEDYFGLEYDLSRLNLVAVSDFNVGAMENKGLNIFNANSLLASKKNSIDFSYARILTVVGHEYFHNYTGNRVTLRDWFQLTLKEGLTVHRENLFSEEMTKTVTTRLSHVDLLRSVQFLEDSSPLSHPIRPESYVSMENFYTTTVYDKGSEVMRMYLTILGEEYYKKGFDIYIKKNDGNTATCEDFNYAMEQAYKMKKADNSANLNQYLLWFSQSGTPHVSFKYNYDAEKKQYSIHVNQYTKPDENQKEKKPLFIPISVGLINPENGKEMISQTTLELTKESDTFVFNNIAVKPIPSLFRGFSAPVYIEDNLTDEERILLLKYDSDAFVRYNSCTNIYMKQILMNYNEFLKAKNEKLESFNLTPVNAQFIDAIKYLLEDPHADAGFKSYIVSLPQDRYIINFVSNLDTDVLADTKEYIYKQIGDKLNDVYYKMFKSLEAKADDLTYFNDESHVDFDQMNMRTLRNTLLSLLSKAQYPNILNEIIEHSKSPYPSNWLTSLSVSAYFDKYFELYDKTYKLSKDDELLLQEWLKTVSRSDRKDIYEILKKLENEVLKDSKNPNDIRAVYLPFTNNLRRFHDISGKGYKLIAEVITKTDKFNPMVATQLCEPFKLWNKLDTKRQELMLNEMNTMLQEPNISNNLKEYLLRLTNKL

[2] = NIH-3T3 fibroblast cytotoxicity, dose response, cytotoxicity control, cell-based, fluorescence, Alamar Blue, secondary assay (AID 2327); type: functional;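 also: NIH-3T3 mouse fibroblasts cultured with fluconazole at 8 µg/mL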
[3] = C. albicans growth with fluconazole, confirmation, fluorescence, retest (AID 2467); type: functional, cell-based
[4] = target: 26S proteasome non-ATPase regulatory subunit 14 (Homo sapiens, UniProt O00487); experiment: inhibition of proteasome subunit RPN11 – biochemical, fluorescence polarization, uHTS hits, confirmation (AID 602368); type: functional
Chain of 26S proteasome non-ATPase regulatory subunit 14 (O00487 whole entry): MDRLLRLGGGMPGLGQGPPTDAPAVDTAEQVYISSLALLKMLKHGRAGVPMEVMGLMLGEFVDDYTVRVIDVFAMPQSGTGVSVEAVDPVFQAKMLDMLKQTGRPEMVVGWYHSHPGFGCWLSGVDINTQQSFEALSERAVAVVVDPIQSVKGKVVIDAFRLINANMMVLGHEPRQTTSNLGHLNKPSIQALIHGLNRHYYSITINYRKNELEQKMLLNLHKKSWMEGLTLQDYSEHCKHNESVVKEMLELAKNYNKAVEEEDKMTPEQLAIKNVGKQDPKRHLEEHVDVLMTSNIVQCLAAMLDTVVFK

Prothrombin = Prothrombin (Bos taurus, UniProt P00735); experiment: thrombin inhibition, dose response, biochemical, fluorescence polarization, uHTS hits (AID 602369); type: functional
[5] = target: 72 kDa type IV collagenase (Homo sapiens, UniProt P08253); experiment: Dose Response validation of uHTS RPN11 inhibitor hits using a MMP-2 Fluorescence assay.; type: functional
Chain of 72 kDa type IV collagenase (P08253 whole entry): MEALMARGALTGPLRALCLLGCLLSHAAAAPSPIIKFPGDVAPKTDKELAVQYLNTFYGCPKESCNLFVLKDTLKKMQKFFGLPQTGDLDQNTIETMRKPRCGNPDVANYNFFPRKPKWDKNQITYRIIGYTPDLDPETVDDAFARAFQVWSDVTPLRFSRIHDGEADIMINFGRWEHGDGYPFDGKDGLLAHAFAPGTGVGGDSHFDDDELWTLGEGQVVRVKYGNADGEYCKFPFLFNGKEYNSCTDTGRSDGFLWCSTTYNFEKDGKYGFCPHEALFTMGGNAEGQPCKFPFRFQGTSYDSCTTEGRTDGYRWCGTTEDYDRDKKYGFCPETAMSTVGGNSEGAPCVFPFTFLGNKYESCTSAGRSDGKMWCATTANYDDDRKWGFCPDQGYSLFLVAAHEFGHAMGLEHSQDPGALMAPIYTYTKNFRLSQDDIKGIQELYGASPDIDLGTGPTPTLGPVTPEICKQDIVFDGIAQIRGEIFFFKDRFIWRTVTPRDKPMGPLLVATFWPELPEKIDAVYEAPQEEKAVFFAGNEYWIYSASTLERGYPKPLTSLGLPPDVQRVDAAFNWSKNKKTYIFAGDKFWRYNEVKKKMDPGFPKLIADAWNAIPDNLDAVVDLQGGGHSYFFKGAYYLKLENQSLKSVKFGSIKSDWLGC

[6] = inhibitors of intracellular T. cruzi replication, confirmation, NIH3T3 host cells, beta-gal luminescence (AID 2044); type: functional, cell-based;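 also: intracellular parasites grown in NIH/3T3 mouse fibroblasts as host cells; luminescent beta-galactosidase reporter signal from transgenic T. cruzi replicating inside host cells; inhibitors lower the luminescence signal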
[7] = cytotoxicity toward NIH3T3 fibroblasts, dose response, counter-screen, cell-based, ATP luminescence, mouse fibroblasts (AID 2010); type: functional;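 also: cells exposed to compound for about 90 hours before reading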
[8] = target: T2, Endoribonuclease toxin MazF (Escherichia coli K-12, UniProt P0AE70); experiment: MazF toxin RNase activators, dose response, biochemical, fluorescence, single-stranded RNA substrate, uHTS hits (AID 588481); type: functional
T2 sequence (P0AE70 whole entry): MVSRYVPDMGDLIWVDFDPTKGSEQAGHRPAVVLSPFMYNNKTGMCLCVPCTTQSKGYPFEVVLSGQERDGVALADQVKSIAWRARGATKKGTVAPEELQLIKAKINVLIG

[9] = target: T2, Endoribonuclease toxin MazF; experiment: fluorescent RNA oligo signal without MazF, dose response, counter-screen for MazEF activator project, biochemical, fluorescence, single-stranded RNase substrate (AID 588502); type: functional
[10] = target: T3, Corticotropin-releasing factor receptor 2/Corticotropin-releasing factor-binding protein (Homo sapiens, UniProt P24387+Q13324); experiment: activators of CRF receptor 2 with binding protein – uHTS hits, confirmation (AID 602473); type: functional; conditions: read-out: EC50_Mean
T3 sequence (Q13324 whole entry): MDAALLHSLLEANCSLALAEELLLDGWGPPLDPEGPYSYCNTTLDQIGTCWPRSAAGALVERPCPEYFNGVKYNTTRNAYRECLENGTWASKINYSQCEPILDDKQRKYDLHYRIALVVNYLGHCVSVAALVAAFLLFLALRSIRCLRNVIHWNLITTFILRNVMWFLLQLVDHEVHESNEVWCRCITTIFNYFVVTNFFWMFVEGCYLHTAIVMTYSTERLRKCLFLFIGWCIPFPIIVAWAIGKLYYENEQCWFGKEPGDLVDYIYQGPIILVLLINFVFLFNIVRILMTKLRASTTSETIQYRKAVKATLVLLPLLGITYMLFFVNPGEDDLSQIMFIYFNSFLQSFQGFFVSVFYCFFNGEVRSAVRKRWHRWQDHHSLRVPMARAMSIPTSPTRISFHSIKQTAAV
T3 sequence (P24387 whole entry): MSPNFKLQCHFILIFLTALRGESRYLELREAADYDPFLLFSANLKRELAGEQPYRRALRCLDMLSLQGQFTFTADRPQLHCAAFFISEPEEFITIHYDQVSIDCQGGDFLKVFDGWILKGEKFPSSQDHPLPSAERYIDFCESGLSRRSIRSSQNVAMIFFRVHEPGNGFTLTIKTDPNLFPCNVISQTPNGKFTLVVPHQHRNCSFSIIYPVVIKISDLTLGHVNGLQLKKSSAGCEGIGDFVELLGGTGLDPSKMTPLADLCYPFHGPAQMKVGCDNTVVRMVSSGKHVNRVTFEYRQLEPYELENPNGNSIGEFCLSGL

[11] = THP-1 cell cytotoxicity, dose response, cytotoxicity control for non-replicating M. tuberculosis project (AID 489025); type: functional
[12] = Vero E6 cell cytotoxicity, dose response, cytotoxicity control for non-replicating M. tuberculosis project, secondary assay (AID 492998); type: functional, VeroE6; conditions: Vero C1008
[13] = target: Dual specificity tyrosine-phosphorylation-regulated kinase 1A (Rattus norvegicus, UniProt Q63470); type: biochemical, Homo sapiens
cells = type: functional
Genome polyprotein = Genome polyprotein (dengue virus type 2, UniProt P29990); experiment: Dengue-2 NS5 methyltransferase inhibitors, primary screen, biochemical, confirmation dose response (AID 588689); type: functional
Chain of Genome polyprotein (P29990 2492-3391 limits assumed): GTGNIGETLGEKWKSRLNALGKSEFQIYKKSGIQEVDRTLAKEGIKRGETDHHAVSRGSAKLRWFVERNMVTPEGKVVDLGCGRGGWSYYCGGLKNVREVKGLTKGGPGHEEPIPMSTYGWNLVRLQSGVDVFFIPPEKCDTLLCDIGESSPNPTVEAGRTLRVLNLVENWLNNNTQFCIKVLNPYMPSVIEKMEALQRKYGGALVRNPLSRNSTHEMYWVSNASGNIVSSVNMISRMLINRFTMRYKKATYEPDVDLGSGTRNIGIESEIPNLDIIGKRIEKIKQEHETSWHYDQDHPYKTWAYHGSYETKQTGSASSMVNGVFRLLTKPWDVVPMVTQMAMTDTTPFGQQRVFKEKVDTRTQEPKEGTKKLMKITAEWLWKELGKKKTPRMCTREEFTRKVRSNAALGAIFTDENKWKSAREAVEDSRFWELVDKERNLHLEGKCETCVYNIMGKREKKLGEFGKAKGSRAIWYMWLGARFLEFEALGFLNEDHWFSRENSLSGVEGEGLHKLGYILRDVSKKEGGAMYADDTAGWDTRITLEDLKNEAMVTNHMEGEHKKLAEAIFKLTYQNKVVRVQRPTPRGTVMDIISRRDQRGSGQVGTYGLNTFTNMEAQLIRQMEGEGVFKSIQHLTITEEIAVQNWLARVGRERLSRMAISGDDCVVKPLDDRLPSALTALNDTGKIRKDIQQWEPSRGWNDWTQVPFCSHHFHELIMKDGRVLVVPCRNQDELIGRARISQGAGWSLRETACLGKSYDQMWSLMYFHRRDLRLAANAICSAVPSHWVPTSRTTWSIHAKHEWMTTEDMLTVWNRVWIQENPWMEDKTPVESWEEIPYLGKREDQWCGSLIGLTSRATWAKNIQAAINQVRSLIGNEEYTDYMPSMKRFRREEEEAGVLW

Vero = Vero cell cytotoxicity, cytotoxicity control for flavivirus capping enzyme inhibitors (AID 588742); type: functional; conditions: Chlorocebus sabaeus
[14] = target: T4, Apoptotic protease-activating factor 1 (Homo sapiens, UniProt O14727); type: functional
T4 sequence (O14727 whole entry): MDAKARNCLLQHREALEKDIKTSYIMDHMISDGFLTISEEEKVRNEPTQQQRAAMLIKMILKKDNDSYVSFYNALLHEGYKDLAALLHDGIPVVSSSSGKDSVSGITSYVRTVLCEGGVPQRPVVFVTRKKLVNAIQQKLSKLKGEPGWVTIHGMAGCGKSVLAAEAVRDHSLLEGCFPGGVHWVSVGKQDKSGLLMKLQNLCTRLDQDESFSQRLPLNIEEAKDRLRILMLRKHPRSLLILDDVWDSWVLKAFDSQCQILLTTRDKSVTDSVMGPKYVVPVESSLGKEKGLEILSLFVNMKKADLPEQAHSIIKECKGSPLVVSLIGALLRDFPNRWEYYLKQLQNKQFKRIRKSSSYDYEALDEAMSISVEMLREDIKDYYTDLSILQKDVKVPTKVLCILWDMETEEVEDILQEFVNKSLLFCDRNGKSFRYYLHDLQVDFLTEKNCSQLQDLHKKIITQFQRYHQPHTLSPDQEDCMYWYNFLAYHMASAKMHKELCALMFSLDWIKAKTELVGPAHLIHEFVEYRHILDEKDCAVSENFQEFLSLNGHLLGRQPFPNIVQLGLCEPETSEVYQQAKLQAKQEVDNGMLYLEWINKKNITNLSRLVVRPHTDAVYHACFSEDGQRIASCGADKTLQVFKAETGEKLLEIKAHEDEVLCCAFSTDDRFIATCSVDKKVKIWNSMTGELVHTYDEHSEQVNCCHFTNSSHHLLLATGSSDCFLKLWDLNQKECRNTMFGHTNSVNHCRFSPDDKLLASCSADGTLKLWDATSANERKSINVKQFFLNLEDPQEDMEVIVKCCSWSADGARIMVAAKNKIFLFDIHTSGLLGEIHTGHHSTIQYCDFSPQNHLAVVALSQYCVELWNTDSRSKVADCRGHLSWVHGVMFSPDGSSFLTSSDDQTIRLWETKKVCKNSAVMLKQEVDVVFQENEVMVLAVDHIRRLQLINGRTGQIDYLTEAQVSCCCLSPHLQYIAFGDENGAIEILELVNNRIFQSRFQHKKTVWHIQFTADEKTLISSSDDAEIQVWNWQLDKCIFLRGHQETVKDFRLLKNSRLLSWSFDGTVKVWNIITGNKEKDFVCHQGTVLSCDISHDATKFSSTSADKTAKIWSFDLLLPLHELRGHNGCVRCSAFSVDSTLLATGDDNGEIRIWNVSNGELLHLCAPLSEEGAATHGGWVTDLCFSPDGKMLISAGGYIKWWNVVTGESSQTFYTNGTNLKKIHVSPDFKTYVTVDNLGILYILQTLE

Chain of Cytochrome P450 3A4 (P08684 whole entry): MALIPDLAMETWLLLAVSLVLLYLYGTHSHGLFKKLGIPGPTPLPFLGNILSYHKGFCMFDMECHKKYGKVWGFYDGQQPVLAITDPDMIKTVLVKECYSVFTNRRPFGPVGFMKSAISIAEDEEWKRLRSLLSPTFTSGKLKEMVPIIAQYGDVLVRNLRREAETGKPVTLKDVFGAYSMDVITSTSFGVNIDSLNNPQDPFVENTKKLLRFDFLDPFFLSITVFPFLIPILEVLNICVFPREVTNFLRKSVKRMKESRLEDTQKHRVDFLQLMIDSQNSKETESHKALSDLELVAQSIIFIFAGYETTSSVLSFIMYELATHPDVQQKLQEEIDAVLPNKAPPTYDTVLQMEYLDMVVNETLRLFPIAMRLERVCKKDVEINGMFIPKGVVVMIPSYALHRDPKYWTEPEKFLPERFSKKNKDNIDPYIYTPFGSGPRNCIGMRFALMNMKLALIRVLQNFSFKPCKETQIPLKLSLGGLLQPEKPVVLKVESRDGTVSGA

N#Cc1ccc(-c2ccc(OCC(=O)NCCCN3CCCC3=O)cc2)cc1
EC50 [1]: > 50 µM (active)

CCOC(=O)OCC1OC(C#Cc2ccc(C)cc2C)C=CC1OC(=O)OCC (stereo not drawn)
AC50 (Cytochrome P450 3A4): 3.98 µM (inconclusive)

O=C(NCCN1CCOCC1)c1cc2c(=O)n3ccccc3nc2n1Cc1ccccc1
IC50 (Aminopeptidase N): 102 µM (active)

CCNC(=O)Oc1cccnc1O
EC50 [1]: > 50 µM (active)

O=C(Nc1nonc1NC(=O)c1cccs1)c1cccs1
EC50 [1]: > 50 µM (active)
EC50 [2]: > 150 µM (inactive)
EC50 [3]: 0.44 µM (active)

CCc1nc2oc3ccccc3c(=O)c2c(=O)n1-c1ccc(C)cc1
IC50 [4]: 24.5 µM (active)
IC50 (Prothrombin): 87.5 µM (active)
IC50 [5]: > 100 µM (inactive)

CCNC(=S)NCC
AC50 (Cytochrome P450 3A4): 6.31 µM (inconclusive)

O=C(Nc1cccc([N+](=O)[O-])c1)Nc1ccc2c(c1)CCC2
EC50 [6]: 3.27 µM (active)
EC50 [7]: > 60 µM (not active)
EC50 [8]: > 99 µM (inactive)
EC50 [9]: > 99 µM (inactive)

Cc1ccc(S(=O)(=O)NCC(=O)OCN2C(=O)c3ccccc3C2=O)cc1
EC50 [1]: > 50 µM (active)

COc1ccc(/C=N/Nc2ccc([N+](=O)[O-])cc2S(=O)(=O)N2CCN(C)CC2)cc1
EC50 [10]: 6.27 µM (active)
EC50 [8]: > 99 µM (inactive)
EC50 [9]: 8.43 µM (active)

O=C(Nc1ncc([N+](=O)[O-])s1)c1cccs1
EC50 [2]: > 150 µM (inactive)
CC50 [11]: 34.3 µM (active)
CC50 [12]: > 20 µM (active)
EC50 [3]: 0.069 µM (active)

COc1ccc(/C=C2\SC(N3CCCCC3)=NC2=O)cc1
AC50 [13]: 0.308 µM (active)

COc1ccc(OC)c(NC(=O)C(=O)NNC(=O)C23CC4CC(CC(C4)C2)C3)c1
CC50 [11]: > 40 µM (active)
CC50 [12]: > 20 µM (active)
IC50 (cells): 8.62 µM (active)

Cc1ccccc1NC(=O)C1c2cccc[n+]2CC(=O)N1c1c(C)cccc1C (stereo not drawn)
EC50 [8]: > 99 µM (inactive)
EC50 [9]: > 99 µM (inactive)

CN(C)c1oc(/C=C/c2ccccc2)nc1C#N
IC50 (Aminopeptidase N): 23.9 µM (active)

Cc1cc(C(=O)NN=C(S)NCc2ccco2)nn1C
IC50 (Aminopeptidase N): 57.7 µM (active)

COc1ccc(CNc2nc3ccccc3n2C)c(O)c1
EC50 [1]: > 50 µM (active)

CCCCCCC#CC1C=CC(Oc2ccc(C=O)cc2)C(CO)O1 (stereo not drawn)
AC50 (Cytochrome P450 3A4): 3.98 µM (inconclusive)

COc1cc(C/C=C/c2ccccc2)c(OC)cc1O [VIOLASTYRENE]
AC50 (Cytochrome P450 3A4): 39.8 µM (inconclusive)

COc1ccc2c(C)cc(SCC(=O)Nc3cc(C(N)=O)cc(C(N)=O)c3)nc2c1
EC50 [8]: > 99 µM (inactive)
EC50 [9]: > 99 µM (inactive)

Cc1ccc(S(=O)(=O)N2[C@@H](c3ccc(Br)cc3)C(C(=O)O)=CC[C@H]2c2ccc(C(C)C)cc2)cc1
IC50 (Genome polyprotein): 32.9 µM (active)
CC50 (Vero): > 40 µM (active)

Cc1cc(Br)c(Cl)cc1NC(=O)CN1C(=O)C2C3CC(c4ccccc4)C(C3)C2C1=O (stereo not drawn)
EC50 [6]: 2.59 µM (active)
EC50 [7]: 7.41 µM (active)
CC50 (Vero): > 40 µM (active)

COc1ccc(-c2nc3nc(C)c(Cc4ccccc4)c(O)n3n2)cc1
IC50 [14]: 30.6 µM (active)

Clc1ccc(C(c2ccccc2)N2CCNCC2)cc1 (stereo not drawn) [NORCHLORCYCLIZINE]
EC50 [1]: > 50 µM (active)
